Source: patent US20120245137A1 (Zalicus Pharmaceuticals Ltd., priority 2009, published 2012)
pIC50: −log10 of the molar value.

How the values were obtained:
Type in all cases: cell-based
[1] = molecular target: N-type calcium channel subunits (α1B, α2δ, and β3a) (Homo sapiens, UniProt Q00975); assay: Block of Cav2.2 channel, whole cell voltage clamp, manual and PatchXpress; details: Table 5; table follows Assay Example 3 (whole cell voltage clamp / PatchXpress); assay not given
How it was run: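 Percent block taken as current amplitude ratio with versus without compound, applied in rising doses; IC50 fitted where one cell received multiple doses. Protocol: 50 ms pulses to +20 mV at 0.067 Hz from […] or −90 mV holding; P/n leak subtraction, no junction-potential correction; manual and PatchXpress recordings.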

[2] = molecular target: human α1H T-type channels (Homo sapiens, UniProt O95180); assay: T-type calcium channel block, whole cell patch clamp, α1H; details: HEK cells stably expressing human α1H; mainly non-inactivated protocol; values above 10,000 nM represented as 10000
Protocol: (§1) T-type calcium channel blocking activity was assayed in human embryonic kidneycells, HEK 293 (Invitrogen), stably transfected with the T-type calcium channel subunits. Briefly, cells were cultured in Dulbecco's modified eagle medium (DMEM) supplemented with 10% fetal bovine serum, 200 U/ml penicillin, and 0.2 mg/mL streptomycin at 37° C. with 5% CO2. At 85% confluency, cells were split with 0.25% trypsin/1 mM EDTA and plated at 10% confluency on glass coverslips. At 12 hours, the medium was replaced, and the cells stably transfected using a standard calcium phosphate protocol and the appropriate calcium channel cDNA's. Fresh DMEM was supplied, and the cells transferred to 28° C./5% CO2.
(§2) Standard patch-clamp techniques were employed to identify blockers of T-type currents. Briefly, previously described HEK cell lines stably expressing human α1G, α1H, and α1I T-type channels were used for all the recordings (passage #: 4-20, 37° C., 5% CO2). Whole cell patch clamp experiments were performed using an Axopatch 200B amplifier (Axon Instruments, Burlingame, Calif.) linked to a personal computer equipped with pCLAMP software. Data were analyzed using Clampfit (Axon Instruments) and SigmaPlot 4.0 (Jandel Scientific). To obtain T-type currents, plastic dishes containing semi-confluent cells were positioned on the stage of a ZEISS AXIOVERT S100 microscope after replacing the culture medium with external solution (Table 2). Whole-cell patches were obtained using pipettes (borosilicate glass with filament, O.D.: 1.5 mm, I.D.: 0.86 mm, 10 cm length), fabricated on a SUTTER P-97 puller with resistance values of ˜5 MΩ (Table 3).
(§3) T-type currents were reliably obtained by using two voltage protocols: • “non-inactivating,” and • “inactivation.”
(§4) Test compounds were dissolved in external solution, 0.1-0.01% DMSO. After ˜10 minutes rest, they were applied by gravity close to the cell using a WPI microfil tubing. The “non-inactivated” pre-pulse was used to examine the resting block of a compound. The “inactivated” protocol was employed to study voltage-dependent block.

[3] = molecular target: human α1G T-type channels (Homo sapiens, UniProt O43497); assay: T-type calcium channel block, whole cell patch clamp, α1G; details: HEK cells stably expressing human α1G; mainly non-inactivated protocol; values above 10,000 nM represented as 10000
Protocol: as §1, §2, §3, §4

Sequence of N-type calcium channel subunits (α1B, α2δ, and β3a) (Q00975 whole entry): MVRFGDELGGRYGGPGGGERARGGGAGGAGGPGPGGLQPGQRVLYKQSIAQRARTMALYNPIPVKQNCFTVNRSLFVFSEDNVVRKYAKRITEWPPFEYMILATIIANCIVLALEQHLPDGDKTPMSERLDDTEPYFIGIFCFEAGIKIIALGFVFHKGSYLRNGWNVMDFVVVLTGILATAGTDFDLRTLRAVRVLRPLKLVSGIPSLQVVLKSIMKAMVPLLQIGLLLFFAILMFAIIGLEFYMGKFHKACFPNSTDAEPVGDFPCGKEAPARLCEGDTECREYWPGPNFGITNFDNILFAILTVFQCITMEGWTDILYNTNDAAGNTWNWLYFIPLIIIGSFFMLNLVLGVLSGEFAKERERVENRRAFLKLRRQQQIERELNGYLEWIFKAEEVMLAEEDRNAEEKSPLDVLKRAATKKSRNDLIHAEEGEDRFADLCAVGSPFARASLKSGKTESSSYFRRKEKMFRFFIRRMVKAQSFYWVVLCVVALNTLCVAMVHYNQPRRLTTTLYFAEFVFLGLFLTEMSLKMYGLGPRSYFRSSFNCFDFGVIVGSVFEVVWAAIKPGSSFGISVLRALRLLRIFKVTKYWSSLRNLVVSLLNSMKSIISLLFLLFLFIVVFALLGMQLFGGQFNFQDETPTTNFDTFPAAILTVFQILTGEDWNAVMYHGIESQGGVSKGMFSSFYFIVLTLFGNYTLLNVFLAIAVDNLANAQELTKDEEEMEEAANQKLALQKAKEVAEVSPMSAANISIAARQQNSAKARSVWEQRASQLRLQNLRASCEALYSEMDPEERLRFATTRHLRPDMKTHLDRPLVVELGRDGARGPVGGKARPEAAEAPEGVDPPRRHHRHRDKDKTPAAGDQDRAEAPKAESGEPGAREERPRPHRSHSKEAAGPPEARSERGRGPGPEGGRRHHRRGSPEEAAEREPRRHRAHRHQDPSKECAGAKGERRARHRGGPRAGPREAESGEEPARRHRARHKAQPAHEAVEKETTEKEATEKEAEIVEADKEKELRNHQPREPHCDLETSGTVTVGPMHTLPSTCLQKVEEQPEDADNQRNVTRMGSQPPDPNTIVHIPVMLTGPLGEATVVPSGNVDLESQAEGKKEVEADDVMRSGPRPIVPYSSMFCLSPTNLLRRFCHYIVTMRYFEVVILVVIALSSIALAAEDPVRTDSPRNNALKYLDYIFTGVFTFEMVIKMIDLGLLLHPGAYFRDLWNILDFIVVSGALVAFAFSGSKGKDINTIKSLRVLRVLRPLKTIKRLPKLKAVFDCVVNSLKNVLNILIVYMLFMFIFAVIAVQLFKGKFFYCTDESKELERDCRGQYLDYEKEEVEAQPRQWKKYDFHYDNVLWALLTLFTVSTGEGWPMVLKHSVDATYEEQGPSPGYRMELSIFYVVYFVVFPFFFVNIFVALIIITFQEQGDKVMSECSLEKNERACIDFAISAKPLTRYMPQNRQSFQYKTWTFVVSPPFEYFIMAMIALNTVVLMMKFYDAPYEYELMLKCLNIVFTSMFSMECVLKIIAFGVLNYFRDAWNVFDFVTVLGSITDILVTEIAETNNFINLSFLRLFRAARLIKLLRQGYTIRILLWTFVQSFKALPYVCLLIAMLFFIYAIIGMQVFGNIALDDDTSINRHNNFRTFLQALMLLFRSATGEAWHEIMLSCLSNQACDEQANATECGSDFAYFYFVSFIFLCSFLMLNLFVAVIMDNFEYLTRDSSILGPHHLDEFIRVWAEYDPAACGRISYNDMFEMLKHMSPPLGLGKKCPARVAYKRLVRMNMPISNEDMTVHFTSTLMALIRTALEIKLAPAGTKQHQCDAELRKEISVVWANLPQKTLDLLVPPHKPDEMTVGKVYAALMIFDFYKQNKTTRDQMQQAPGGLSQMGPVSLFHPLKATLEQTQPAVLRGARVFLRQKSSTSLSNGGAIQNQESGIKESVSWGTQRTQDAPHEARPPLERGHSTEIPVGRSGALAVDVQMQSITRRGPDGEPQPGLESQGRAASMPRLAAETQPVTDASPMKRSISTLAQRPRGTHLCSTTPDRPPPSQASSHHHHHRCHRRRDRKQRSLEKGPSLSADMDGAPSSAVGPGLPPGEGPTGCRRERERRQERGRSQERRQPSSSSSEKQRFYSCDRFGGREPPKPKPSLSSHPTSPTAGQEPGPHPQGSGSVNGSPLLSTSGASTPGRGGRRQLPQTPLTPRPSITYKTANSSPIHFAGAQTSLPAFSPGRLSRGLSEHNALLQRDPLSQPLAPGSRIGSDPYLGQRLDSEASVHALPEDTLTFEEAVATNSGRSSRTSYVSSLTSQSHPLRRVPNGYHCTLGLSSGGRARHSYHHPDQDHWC
Sequence of N-type calcium channel subunits (α1B, α2δ, and β3a) (P54289 25-1103 partner): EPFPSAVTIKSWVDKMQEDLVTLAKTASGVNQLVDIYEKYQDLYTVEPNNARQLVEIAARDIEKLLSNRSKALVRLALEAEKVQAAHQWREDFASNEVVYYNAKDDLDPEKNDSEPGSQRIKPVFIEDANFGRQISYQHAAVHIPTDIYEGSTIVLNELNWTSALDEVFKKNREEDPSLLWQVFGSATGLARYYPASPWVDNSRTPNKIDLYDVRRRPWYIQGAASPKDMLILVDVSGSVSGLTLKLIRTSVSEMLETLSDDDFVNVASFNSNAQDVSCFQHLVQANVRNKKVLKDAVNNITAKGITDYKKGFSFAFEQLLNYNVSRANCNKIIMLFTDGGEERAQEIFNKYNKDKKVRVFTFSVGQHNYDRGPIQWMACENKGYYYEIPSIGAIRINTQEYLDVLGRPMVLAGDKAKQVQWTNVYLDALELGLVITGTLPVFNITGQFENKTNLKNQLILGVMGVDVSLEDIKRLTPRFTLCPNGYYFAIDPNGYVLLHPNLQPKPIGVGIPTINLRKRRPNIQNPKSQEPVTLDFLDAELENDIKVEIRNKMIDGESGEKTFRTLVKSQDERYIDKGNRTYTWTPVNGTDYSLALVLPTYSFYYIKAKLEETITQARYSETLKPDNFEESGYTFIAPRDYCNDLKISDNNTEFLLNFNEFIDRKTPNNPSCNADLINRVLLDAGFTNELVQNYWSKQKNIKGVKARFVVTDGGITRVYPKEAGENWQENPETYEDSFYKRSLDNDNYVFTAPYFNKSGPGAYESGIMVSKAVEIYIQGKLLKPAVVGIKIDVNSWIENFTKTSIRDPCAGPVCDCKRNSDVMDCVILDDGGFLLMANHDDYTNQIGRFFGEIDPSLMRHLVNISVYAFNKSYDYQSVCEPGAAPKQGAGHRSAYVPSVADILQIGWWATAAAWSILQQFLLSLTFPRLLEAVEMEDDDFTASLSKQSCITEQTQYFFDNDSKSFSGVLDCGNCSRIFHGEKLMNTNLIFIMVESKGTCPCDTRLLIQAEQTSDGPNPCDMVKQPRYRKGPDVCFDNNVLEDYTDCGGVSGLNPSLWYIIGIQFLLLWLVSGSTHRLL
Sequence of N-type calcium channel subunits (α1B, α2δ, and β3a) (P54284 whole entry partner): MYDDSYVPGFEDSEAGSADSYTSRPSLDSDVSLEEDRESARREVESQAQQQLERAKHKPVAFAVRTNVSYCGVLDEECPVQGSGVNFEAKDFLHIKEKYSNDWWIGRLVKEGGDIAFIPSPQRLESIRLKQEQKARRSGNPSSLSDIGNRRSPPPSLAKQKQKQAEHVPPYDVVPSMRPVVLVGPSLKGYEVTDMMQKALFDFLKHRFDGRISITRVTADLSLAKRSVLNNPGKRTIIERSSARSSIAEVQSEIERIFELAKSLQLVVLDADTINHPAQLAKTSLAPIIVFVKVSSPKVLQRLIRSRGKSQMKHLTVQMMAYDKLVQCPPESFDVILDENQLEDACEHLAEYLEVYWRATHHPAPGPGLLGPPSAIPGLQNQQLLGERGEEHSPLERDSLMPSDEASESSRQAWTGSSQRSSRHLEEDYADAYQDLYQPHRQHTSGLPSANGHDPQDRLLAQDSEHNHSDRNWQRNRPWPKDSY

Row | IC50 [1] | pIC50 [2] | pIC50 [3] | Compound
1 | 640 nM | < 5.00 |  | CC1(S(=O)(=O)c2cccc(C(F)(F)F)c2)CCC(NC(=O)c2ccc(C(F)(F)F)cn2)CC1 (centres unmarked) [Compound 3, N-(4-methyl-4-(3-(trifluoromethyl)phenylsulfonyl)cyclohexyl)-5-(trifluoromethyl) picolinamide]
2 | 380 nM | < 5.00 |  | CC1(S(=O)(=O)c2cccc(C(F)(F)F)c2)CCC(NC(=O)CCC(F)(F)F)CC1 (centres unmarked) [Compound 5, 4,4,4-trifluoro-N-(4-methyl-4-(3-(trifluoromethyl)phenylsulfonyl)cyclohexyl)butanamide]
3 |  | < 5.00 |  | CC(C)(C)NC(=O)CNC[C@H]1CC[C@@H](S(=O)(=O)c2cccc(C(F)(F)F)c2)CC1 [Compound 35, N-tert-butyl-2-(((1S,4S)-4-(3-(trifluoromethyl)phenylsulfonyl)cyclohexyl)methylamino)acetamide]
4 | 410 nM | < 5.00 |  | COc1cc(F)cc(C(=O)N[C@H]2CC[C@@H](S(=O)(=O)c3cccc(C(F)(F)F)c3)CC2)c1 [Compound 39, 3-fluoro-5-methoxy-N-((1S,4S)-4-(3-(trifluoromethyl)phenylsulfonyl)cyclohexyl)benzamide]
5 | 1290 nM | < 5.00 |  | Cn1cc(C(=O)N[C@H]2CC[C@@H](S(=O)(=O)c3cccc(C(F)(F)F)c3)CC2)c(C(F)(F)F)n1 [Compound 45, 1-methyl-3-(trifluoromethyl)-N-((1S,4S)-4-(3-(trifluoromethyl)phenylsulfonyl)cyclohexyl)-1H-pyrazole-4-carboxamide]
6 | 500 nM |  | 5.28 | CC1(CNC(=O)c2ccc(F)c(Cl)c2)CCC(F)(S(=O)(=O)c2cccc(C(F)(F)F)c2)CC1 (centres unmarked) [Compound 153, 3-chloro-4-fluoro-N-((4-fluoro-1-methyl-4-(3-(trifluoromethyl)phenylsulfonyl)cyclohexyl)methyl)benzamide]
7 | 450 nM |  | 5.44 | CC1(CNC(=O)c2cc(F)cc(Cl)c2)CCC(F)(S(=O)(=O)c2cccc(C(F)(F)F)c2)CC1 (centres unmarked) [Compound 154, 3-chloro-5-fluoro-N-((4-fluoro-1-methyl-4-(3-(trifluoromethyl)phenylsulfonyl)cyclohexyl)methyl)benzamide]
8 | 540 nM |  | 6.02 | CC1(CNC(=O)c2ccc(C(F)(F)F)cc2S(C)(=O)=O)CCC(F)(S(=O)(=O)c2cccc(C(F)(F)F)c2)CC1 (centres unmarked) [Compound 155, N-((4-fluoro-1-methyl-4-(3-(trifluoromethyl)phenylsulfonyl)cyclohexyl)methyl)-2-(methylsulfonyl)-4-(trifluoromethyl)benzamide]
9 | 470 nM |  | < 5.00 | CN(CC(=O)N[C@H]1CC[C@H](CS(=O)(=O)c2cccc(C(F)(F)F)c2)CC1)C1CCCCC1 [Compound 163]
10 | 620 nM |  | 6.03 | CC1(CNC(=O)c2ccc(C(F)(F)F)nc2)CCC(S(=O)(=O)c2cccc(C(F)(F)F)c2)CC1 (centres unmarked) [Compound 213, N-((1-methyl-4-(3-(trifluoromethyl)phenylsulfonyl)cyclohexyl)methyl)-6-(trifluoromethyl)nicotinamide]
11 | 740 nM |  | 6.48 | O=C(NC[C@]1(O)CC[C@@H](S(=O)(=O)c2cccc(C(F)(F)F)c2)CC1)c1cc(F)cc(Cl)c1 [Compound 228, 3-chloro-5-fluoro-N-(((1S,4S)-1-hydroxy-4-(3-(trifluoromethyl)phenylsulfonyl)cyclohexyl)methyl)benzamide]
12 | 870 nM |  | 5.67 | O=C(NC[C@]1(O)CC[C@@H](S(=O)(=O)c2cccc(C(F)(F)F)c2)CC1)c1ccc(F)c(C(F)(F)F)c1 [Compound 234, 4-fluoro-N-(((1S,4S)-1-hydroxy-4-(3-(trifluoromethyl)phenylsulfonyl)cyclohexyl)methyl)-3-(trifluoromethyl)benzamide]
13 | 90 nM |  | 5.56 | O=C(N[C@H]1CC[C@@](F)(S(=O)(=O)c2cccc(C(F)(F)F)c2)CC1)c1ccc(F)c(Cl)c1 [Compound 238, 3-chloro-4-fluoro-N-((1S,4S)-4-fluoro-4-(3-(trifluoromethyl)phenylsulfonyl)cyclohexyl)benzamide]
14 | 340 nM |  | 5.79 | CS(=O)(=O)c1cc(C(F)(F)F)ccc1C(=O)N[C@H]1CC[C@@](F)(S(=O)(=O)c2cccc(C(F)(F)F)c2)CC1 [Compound 239, N-((1S,4S)-4-fluoro-4-(3-(trifluoromethyl)phenylsulfonyl)cyclohexyl)-2-(methylsulfonyl)-4-(trifluoromethyl)benzamide]
15 | 130 nM |  | 5.84 | Cn1nc(C(F)(F)F)cc1C(=O)N[C@H]1CC[C@@](F)(S(=O)(=O)c2cccc(C(F)(F)F)c2)CC1 [Compound 241, N-((1S,4S)-4-fluoro-4-(3-(trifluoromethyl)phenylsulfonyl)cyclohexyl)-1-methyl-3-(trifluoromethyl)-1H-pyrazole-5-carboxamide]
16 | 110 nM |  | 5.37 | COc1cc(C(=O)N[C@H]2CC[C@@](F)(S(=O)(=O)c3cccc(C(F)(F)F)c3)CC2)cc(Cl)n1 [Compound 242, 2-chloro-N-((1S,4S)-4-fluoro-4-(3-(trifluoromethyl)phenylsulfonyl)cyclohexyl)-6-methoxyisonicotinamide]
17 | 60 nM |  | 5.35 | Cc1cc(C(=O)N[C@H]2CC[C@@](F)(S(=O)(=O)c3cccc(C(F)(F)F)c3)CC2)c(C(F)(F)F)o1 [Compound 243]
18 | 40 nM |  | 5.45 | CC(C)(C)S(=O)(=O)c1ccsc1C(=O)N[C@H]1CC[C@@](F)(S(=O)(=O)c2cccc(C(F)(F)F)c2)CC1 [Compound 244, 3-(tert-butylsulfonyl)-N-((1S,4S)-4-fluoro-4-(3-(trifluoromethyl)phenylsulfonyl)cyclohexyl)thiophene-2-carboxamide]
19 | 130 nM |  | 5.42 | O=C(N[C@H]1CC[C@@](F)(S(=O)(=O)c2cccc(C(F)(F)F)c2)CC1)c1ccnn1CC(F)(F)F [Compound 245, N-((1S,4S)-4-fluoro-4-(3-(trifluoromethyl)phenylsulfonyl)cyclohexyl)-1-(2,2,2-trifluoroethyl)-1H-pyrazole-5-carboxamide]
20 | 130 nM |  | 5.76 | O=C(N[C@H]1CC[C@@](F)(S(=O)(=O)c2cccc(C(F)(F)F)c2)CC1)c1ccnc(C(F)(F)F)c1 [Compound 246]
21 | 530 nM |  | < 5.00 | O=S(=O)(N[C@H]1CC[C@@](F)(S(=O)(=O)c2cccc(C(F)(F)F)c2)CC1)c1ccc(C(F)(F)F)cc1 [Compound 301, N-((1S,4S)-4-fluoro-4-(3-(trifluoromethyl)phenylsulfonyl)cyclohexyl)-4-(trifluoromethyl) benzenesulfonamide]
22 | 1610 nM |  | 5.27 | CC(C)(C)NC(=O)CNC[C@H]1C[C@H](S(=O)(=O)c2cccc(C(F)(F)F)c2)C1 [Compound 359, N-tert-butyl-2-(((1R,3R)-3-(3-(trifluoromethyl)phenylsulfonyl)cyclobutyl)methylamino)acetamide]
23 | 1300 nM |  | < 5.00 | O=C(Nc1ccc(Oc2ccc(F)cc2)nc1)[C@H]1C[C@H](S(=O)(=O)c2cccc(C(F)(F)F)c2)C1 [Compound 405, (1R,3R)-N-(6-(4-fluorophenoxy)pyridin-3-yl)-3-(3-(trifluoromethyl)phenylsulfonyl)cyclobutane carboxamide]
24 | 1140 nM |  | < 5.00 | O=S(=O)(NC[C@H]1C[C@H](S(=O)(=O)c2cccc(C(F)(F)F)c2)C1)c1ccccc1C(F)(F)F [Compound 426, 2-(trifluoromethyl)-N-(((1R,3R)-3-(3-(trifluoromethyl)phenylsulfonyl)cyclobutyl)methyl)benzenesulfonamide]
25 |  | 6.26 |  | CC(C)(CCNC(=O)c1ccc(F)c(C(F)(F)F)c1)S(=O)(=O)c1cccc(C(F)(F)F)c1 [Compound 466, 4-fluoro-N-(3-methyl-3-(3-(trifluoromethyl)phenylsulfonyl)butyl)-3-(trifluoromethyl)benzamide]

Row | Compound | IC50 [1] | pIC50 [2] | pIC50 [3]
26 | 6-fluoro-N-((1R,4R)-4-((3- (trifluoromethyl)phenylsulfonyl) methyl)cyclohexyl)-1H- benzo[d]imidazole-2-carboxamide [Compound 110] | 6020 nM | < 5.00 | 
